One test has as its target T1, human CD73 (Homo sapiens, UniProt P21589).
T1 construct: expressed in transfected cells
T1 sequence (P21589 27-549): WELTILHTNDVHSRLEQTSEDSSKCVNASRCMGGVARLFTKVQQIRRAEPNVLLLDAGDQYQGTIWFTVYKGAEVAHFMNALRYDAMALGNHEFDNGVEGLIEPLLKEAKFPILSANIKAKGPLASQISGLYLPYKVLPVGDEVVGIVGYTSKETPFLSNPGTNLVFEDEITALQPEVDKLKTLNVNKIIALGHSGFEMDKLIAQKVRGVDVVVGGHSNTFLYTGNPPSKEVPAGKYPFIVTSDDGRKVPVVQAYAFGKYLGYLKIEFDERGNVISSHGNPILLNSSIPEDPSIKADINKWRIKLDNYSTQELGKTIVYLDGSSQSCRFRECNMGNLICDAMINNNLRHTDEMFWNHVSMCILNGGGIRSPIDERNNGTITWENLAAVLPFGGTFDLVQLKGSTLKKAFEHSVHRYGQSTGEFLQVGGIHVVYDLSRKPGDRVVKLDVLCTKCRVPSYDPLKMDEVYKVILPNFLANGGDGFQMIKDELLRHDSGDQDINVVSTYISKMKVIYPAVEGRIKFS
In words: Inhibitor activity against CD73 in cell based assay (CD73 expressing CHO-K1 cells). Particulars: CHO-K1 cells expressing human CD73, 150 μM AMP, 4 hours of incubation; read-out: CHO-K1 CELL_VARIANT: CD73 IC50. The gist of the method:
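Stable human CD73 CHO-K1 cells, 1×10^4/well, exposed to an 8-point 1:3 compound series (top 10 μM, 0.2% DMSO) plus 150 μM AMP for 4 h. Remaining AMP in the supernatant was read by CellTiter-Glo 2.0 luminescence with 1 μM ATP after 30 min at room temperature. IC50 came from nonlinear regression of % inhibition against cell and media-only controls.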

Test [1] addresses T2, Human CD73 (amino acid residues 27-549) (Homo sapiens, UniProt P21589).
T2 construct: Human CD73 (amino acid residues 27-549); His tag (N); made in house; host or cells: E. coli
T2 sequence (P21589 27-549): T1 sequence (P21589 27-549)
In words: CD73 enzymatic assay (luciferase-based indirect assay, CellTiter-Glo). Particulars: 0.4 nM CD73, 150 μM AMP, 1 hour at room temperature. In kind it is biochemical. In a few lines: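 N-His human CD73 (27-549) expressed in E. coli, 0.4 nM, incubated with 150 μM AMP and compound in 50 mM HEPES pH 7.4, 0.01% Tween-20, 1 h at RT. Remaining AMP read via CellTiter-Glo luminescence with 1 μM ATP after 30 min; IC50 from nonlinear regression of % inhibition.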
Background: In ATP-based viability assays light output follows the ATP content of the culture.

As a reminder, the IC50 is the concentration that inhibits the measured activity by half. As to `Cc1noc(C)c1-c1cc(F)nc(O[C@H]2CN(c3cn[nH]c(=O)c3Cl)C[C@@H]2F)c1` [P-0189, 4-chloro-5-((3S,4S)-3-((4-(3,5-dimethylisoxazol-4-yl)-6-fluoropyridin-2-yl)oxy)-4-fluoropyrrolidin-1-yl)pyridazin-3(2H)-one], the IC50 (at human CD73; in test [1]) was 0.001 to 10 µM throughout.

`Cc1nn(C)c(C)c1-c1cc(F)nc(O[C@H]2CN(c3cnn(CCO)c(=O)c3Cl)C[C@@H]2F)c1` [P-0190, 4-chloro-5-((3S,4S)-3-fluoro-4-((6-fluoro-4-(1,3,5-trimethyl-1H-pyrazol-4-yl)pyridin-2-yl)oxy)pyrrolidin-1-yl)-2-(2-hydroxyethyl)pyridazin-3(2H)-one]: the IC50 (at human CD73; in test [1]) was 0.001 to 10 µM each time.

Regarding `Cc1nn(C)c(C)c1-c1cc(F)nc(O[C@H]2CN(c3cn[nH]c(=O)c3Cl)C[C@@H]2F)c1` [P-0191, 4-chloro-5-((3S,4S)-3-fluoro-4-((6-fluoro-4-(1,3,5-trimethyl-1H-pyrazol-4-yl)pyridin-2-yl)oxy)pyrrolidin-1-yl)pyridazin-3(2H)-one], the concentration for half-maximal inhibition (IC50) (at human CD73; in test [1]) was 0.001 to 10 µM throughout.

Turning to `Cc1nn(CCO)c(C)c1-c1cc(F)nc(O[C@@H]2CCN(c3cn[nH]c(=O)c3Cl)C2)c1` [P-0192, (R)-4-chloro-5-(3-((6-fluoro-4-(1-(2-hydroxyethyl)-3,5-dimethyl-1H-pyrazol-4-yl)pyridin-2-yl)oxy)pyrrolidin-1-yl)pyridazin-3(2H)-one], the IC50 (on human CD73; in test [1]) was 0.001 to 10 µM throughout.

On to `Cc1n[nH]c(C)c1-c1cc(F)nc(O[C@@H]2CCN(c3cn[nH]c(=O)c3Cl)C2)c1` [P-0193, (R)-4-chloro-5-(3-((4-(3,5-dimethyl-1H-pyrazol-4-yl)-6-fluoropyridin-2-yl)oxy)pyrrolidin-1-yl)pyridazin-3(2H)-one], for which the IC50 (at human CD73; in test [1]) was 0.001 to 10 µM each time.

`Cc1c(-c2cc(F)nc(O[C@@H]3CCN(c4cn[nH]c(=O)c4Cl)C3)c2)cnn1C` [P-0194, (R)-4-chloro-5-(3-((4-(1,5-dimethyl-1H-pyrazol-4-yl)-6-fluoropyridin-2-yl)oxy)pyrrolidin-1-yl)pyridazin-3(2H)-one]: the IC50 (at human CD73; in test [1]) was 0.001 to 10 µM in each case.

On to `Cc1noc(C)c1-c1cc(F)nc(O[C@@H]2CCN(c3cn[nH]c(=O)c3Cl)C2)c1` [P-0195, (R)-4-chloro-5-(3-((4-(3,5-dimethylisoxazol-4-yl)-6-fluoropyridin-2-yl)oxy)pyrrolidin-1-yl)pyridazin-3(2H)-one], for which the IC50 (on human CD73; in test [1]) was 0.001 to 10 µM in each case.

`Cc1c(-c2cccc(O[C@@H]3CCN(c4cn[nH]c(=O)c4Cl)C3)c2)cnn1C` [P-0196, (R)-4-chloro-5-(3-(3-(1,5-dimethyl-1H-pyrazol-4-yl)phenoxy)pyrrolidin-1-yl)pyridazin-3(2H)-one]: the IC50 (on human CD73; in test [1]) was 0.001 to 10 µM in each case.

With `Cc1nn(C)cc1-c1cccc(O[C@@H]2CCN(c3cn[nH]c(=O)c3Cl)C2)c1` [P-0197, (R)-4-chloro-5-(3-(3-(1,3-dimethyl-1H-pyrazol-4-yl)phenoxy)pyrrolidin-1-yl)pyridazin-3(2H)-one], the IC50 (on human CD73; in test [1]) was 0.001 to 10 µM each time.

Turning to `Cc1nn(C)c(C)c1-c1cccc(O[C@@H]2CCN(c3cn[nH]c(=O)c3Cl)C2)c1` [P-0198, (R)-4-chloro-5-(3-(3-(1,3,5-trimethyl-1H-pyrazol-4-yl)phenoxy)pyrrolidin-1-yl)pyridazin-3(2H)-one], the IC50 (at human CD73; in test [1]) was 0.001 to 10 µM throughout.

Take `Cc1nn(C)c(C)c1-c1cc(F)nc(O[C@@H]2CCN(c3cnn(CCO)c(=O)c3Cl)C2)c1` [P-0199, (R)-4-chloro-5 (3-((6-fluoro-4-(1,3,5-trimethyl-1H-pyrazol-4-yl)pyridin-2-yl)oxy)pyrrolidin-1-yl)-2-(2-hydroxyethyl)pyridazin-3(2H)-one]: the IC50 (on human CD73; in test [1]) was 0.001 to 10 µM in each case.

On to `Cc1nn(C)c(C)c1-c1cc(F)nc(O[C@@H]2CCN(c3cn[nH]c(=O)c3Cl)C2)c1` [P-0200, (R)-4-chloro-5-(3-((6-fluoro-4-(1,3,5-trimethyl-1H-pyrazol-4-yl)pyridin-2-yl)oxy)pyrrolidin-1-yl)pyridazin-3(2H)-one], for which the IC50 (on human CD73; in test [1]) was 0.001 to 10 µM in each case.

`Cc1noc(C)c1-c1ccnc(O[C@@H]2CCN(c3cn[nH]c(=O)c3Cl)C2)c1` [P-0201, (R)-4-chloro-5-(3-((4-(3,5-dimethylisoxazol-4-yl)pyridin-2-yl)oxy)pyrrolidin-1-yl)pyridazin-3(2H)-one]: the IC50 (on human CD73; in test [1]) was 0.001 to 10 µM throughout.

For `CCNS(=O)(=O)c1ccc(-c2ccnc(O[C@@H]3CCN(c4cn[nH]c(=O)c4Cl)C3)c2)c(Cl)c1` [P-0202, (R)-3-chloro-4-(2-((1-(5-chloro-6-oxo-1,6-dihydropyridazin-4-yl)pyrrolidin-3-yl)oxy)pyridin-4-yl)-N-ethylbenzenesulfonamide], the IC50 (at human CD73; in test [1]) was 0.001 to 10 µM each time.

As to `Cc1nn(C)c(C)c1-c1ccnc(O[C@@H]2CCN(c3cn[nH]c(=O)c3Cl)C2)c1` [P-0203, (R)-4-chloro-5-(3-((4-(1,3,5-trimethyl-1H-pyrazol-4-yl)pyridin-2-yl)oxy)pyrrolidin-1-yl)pyridazin-3(2H)-one], the IC50 (at human CD73; in test [1]) was 0.001 to 10 µM each time.

Regarding `CCCS(=O)(=O)Nc1ccc(-c2ccnc(O[C@@H]3CCN(c4cn[nH]c(=O)c4Cl)C3)c2)c(F)c1` [P-0204, (R)-N-(4-(2-((1-(5-chloro-6-oxo-1,6-dihydropyridazin-4-yl)pyrrolidin-3-yl)oxy)pyridin-4-yl)-3-fluorophenyl)propane-1-sulfonamide], the IC50 (at human CD73; in test [1]) was 0.001 to 10 µM throughout.

Consider `CC(C)C(=O)Nc1ccc(-c2ccnc(O[C@@H]3CCN(c4cn[nH]c(=O)c4Cl)C3)c2)c(F)c1` [P-0205, (R)-N-(4-(2-((1-(5-chloro-6-oxo-1,6-dihydropyridazin-4-yl)pyrrolidin-3-yl)oxy)pyridin-4-yl)-3-fluorophenyl)isobutyramide], for which the IC50 (on human CD73; in test [1]) was 0.001 to 10 µM each time.

Regarding `O=C(Nc1ccc(-c2ccnc(O[C@@H]3CCN(c4cn[nH]c(=O)c4Cl)C3)c2)c(F)c1)C1CCCC1` [P-0206, (R)-N-(4-(2-((1-(5-chloro-6-oxo-1,6-dihydropyridazin-4-yl)pyrrolidin-3-yl)oxy)pyridin-4-yl)-3-fluorophenyl)cyclopentane-carboxamide], the IC50 (at human CD73; in test [1]) was 0.001 to 10 µM in each case.

In the case of `O=c1[nH]ncc(N2CC[C@@H](Oc3cc(-c4c(F)cc(S(=O)(=O)NC5CC5)cc4F)ccn3)C2)c1Cl` [P-0207, (R)-4-(2-((1-(5-chloro-6-oxo-1,6-dihydropyridazin-4-yl)pyrrolidin-3-yl)oxy)pyridin-4-yl)-N-cyclopropyl-3,5-difluorobenzenesulfonamide], the IC50 (on human CD73; in test [1]) was 0.001 to 10 µM throughout.

In the case of `CCCNS(=O)(=O)c1cc(F)c(-c2ccnc(O[C@@H]3CCN(c4cn[nH]c(=O)c4Cl)C3)c2)c(F)c1` [P-0208, (R)-4-(2-((1-(5-chloro-6-oxo-1,6-dihydropyridazin-4-yl)pyrrolidin-3-yl)oxy)pyridin-4-yl)-3,5-difluoro-N-propylbenzenesulfonamide], the IC50 (on human CD73; in test [1]) was 0.001 to 10 µM throughout.

With `Cc1c(-c2ccnc(O[C@@H]3CCN(c4cn[nH]c(=O)c4Cl)C3)c2)cnn1C` [P-0209, (R)-4-chloro-5-(3-((4-(1,5-dimethyl-1H-pyrazol-4-yl)pyridin-2-yl)oxy)pyrrolidin-1-yl)pyridazin-3(2H)-one], the IC50 (on human CD73; in test [1]) was 0.001 to 10 µM in each case.

`Cc1cc(NS(=O)(=O)C2CC2)ccc1-c1ccnc(O[C@@H]2CCN(c3cn[nH]c(=O)c3Cl)C2)c1` [P-0210, (R)-N-(4-(2-((1-(5-chloro-6-oxo-1,6-dihydropyridazin-4-yl)pyrrolidin-3-yl)oxy)pyridin-4-yl)-3-methylphenyl)cyclopropane-sulfonamide]: the IC50 (at human CD73; in test [1]) was 0.001 to 10 µM in each case.

Turning to `O=C(Nc1ccc(-c2ccnc(O[C@@H]3CCN(c4cn[nH]c(=O)c4Cl)C3)c2)c(F)c1)NC1CC1` [P-0211, (R)-1-(4-(2-((1-(5-chloro-6-oxo-1,6-dihydropyridazin-4-yl)pyrrolidin-3-yl)oxy)pyridin-4-yl)-3-fluorophenyl)-3-cyclopropylurea], the IC50 (at human CD73; in test [1]) was 0.001 to 10 µM throughout.

For the origin of these results see patent publication US12202818B2, “Compounds and methods for CD73 modulation and indications therefor” (Opna Bio SA, priority 2020, dated 2025).
